Results from patent publication US20240398775A1, “PHARMACEUTICAL COMPOSITION FOR USE IN TREATING COGNITIVE DECLINE OR FOR USE IN TREATING OVERWEIGHT OR OBESITY” (University of the Ryukyus, priority 2021, published 2024).

Columns and labels:
[1] = tested on: NMDA receptor (NMDAR); test: Ca2+ imaging (Fluo-3) of hippocampal brain slices, NMDA + glycine application (NMDA reaction); assay type: cell-based, mouse; conditions: for function of NMDAR in EC, CA1, CA2, CA3 and DG: leptin 100 nM
[2] = tested on: Ca2+ permeable AMPAR (CP-AMPAR); test: Ca2+ imaging (Fluo-3) of hippocampal brain slices, AMPA + CTZ application (CP-AMPA reaction); assay type: cell-based, mouse
[3] = tested on: NL-G-F(−/−) mice; test: Hippocampus function-dependent fear conditioning test in NL-G-F(−/−) mice; assay type: in vivo, mouse; conditions: perampanel alone 5 mg/kg or 10 mg/kg
Description: Contextual fear conditioning was applied with slight modifications to published protocols (50). Mice were transferred to the animal experimental room and allowed to acclimatize for at least 30 minutes prior to contextual fear conditioning training. Next, the mice were placed in a foot shock system model MK-450 MSQ (Muromachi Kikai Co., Ltd., Japan), searching was performed for 2 minutes, and then 3 electric foot shocks (0.8 mA, 2 sec, 2 min interval) were performed. After mice were left in the apparatus for an additional 1 minute, the animals were removed.
NL-G-F(−/−) mice, a dementia model, were administered with memantine (mema), exercise, memantine and exercise, memantine and perampanel, and perampanel alone (5 mg/kg or 10 mg/kg), and subjected to behavioral experiments. As the behavior test, a novel object recognition test and a hippocampus function-dependent fear conditioning test were performed. Memantine is an antagonist of the NMDA receptor, but has distinct properties from other NMDA receptor antagonists (refer to Hokama Y., et al., Neuro Oncology, 2022, noac162). That is, memantine is a drug that works only when glutamic acid is excessively present in the brain.

N[C@H](CCCP(=O)(O)O)C(=O)O [APV, D-(−)-2-amino-5 phosphonovaleric acid]
NMDA receptor reactivity to NMDA and glycine ([1]; 2 w HFD slices under calcium ion-free (0 mM Ca) conditions, in the presence of APV): disappeared | NMDA receptor reactivity to NMDA and glycine ([1]; BAPTA-AM-treated 2 w HFD slices, APV 50 μM simultaneously with NMDA and glycine): abolished

CC(=O)OCOC(=O)CN(CC(=O)OCOC(C)=O)c1ccccc1OCCOc1ccccc1N(CC(=O)OCOC(C)=O)CC(=O)OCOC(C)=O [BAPTA-AM]
NMDA receptor reactivity to NMDA (50 μM) and glycine (10 μM) ([1]; brain slices of 2 w HFD mice treated 60 min with 3 μM BAPTA-AM, n=3): restoration of reactivity

Cc1cn2c(n1)Cc1ccc(Cl)cc1C(c1ccc(N)cc1)=N2 [GYKI 47261]
increase in [Ca2+]i via AMPAR [2]: completely repressed | increase in [Ca2+]i via pathological AMPARs [2]: disappeared | inhibitory effect on CP-AMPAR in EC, CA1, CA2, CA3 and DG [2]: significant inhibitory effect

NCCCNCCCCNCCCNC(=O)Cc1cccc2ccccc12 [NASPM, N-[3-[[4-[(3-aminopropyl)amino]butyl]amino]propyl]-1-naphthaleneacetamide]
increase in [Ca2+]i via AMPAR [2]: completely repressed | increase in [Ca2+]i via pathological AMPARs [2]: disappeared | inhibitory effect on CP-AMPAR in EC, CA1, CA2, CA3 and DG [2]: significant inhibitory effect

C[C@H](CCC(=O)O)C[C@H](C)C[C@H](C)C(=O)/C=C(\O)[C@H](C)C[C@H](C)C/C=C/[C@@H](C)[C@@H](O)[C@@H](C)[C@@H](O)C[C@@H]1CC[C@@](C)([C@H]2CC[C@@](C)([C@@H](C)O)O2)O1 [ionomycin]
NMDA receptor reactivity due to addition of NMDA and glycine ([1]; slices of 14 to 16 week old mice on normal diet, 2 mM Ca2+, pretreated with 1 μM ionomycin for 10 min, n=4): disappeared

CC12CC3CC(C)(C1)CC(N)(C3)C2 [memantine]
cognitive function in hippocampus function-dependent fear conditioning test [3]: improvement in cognitive function

leptin: a hormone that regulates energy expenditure
function of NMDAR in EC, CA1, CA2, CA3 and DG ([1]; HFD mice orally administered PER): significantly enhanced | function of NMDAR in EC, CA1, CA2, CA3 and DG ([1]; ob/ob mice orally administered PER): significantly enhanced
